Laboratory results taken from patent publication US9012455B2, “Pharmaceutical compositions containing an indoyl isoquinoline containing compound and uses thereof” (The Regents of the University of California, priority 2006, dated 2015).
pEC50, pIC50: −log10 of the molar value. “And” between values parts separate entries of the source, which are not always exact repeats. Identical values can stand only once. Like-named read-outs stand apart in the source and are kept apart here.

Legend:
[1] = target: T1, Rad51-BRC repeat binding (Homo sapiens, UniProt Q06609); assay: SPR (Biacore) competitive binding assay, solution competition format
T1 sequence (Q06609 1-339): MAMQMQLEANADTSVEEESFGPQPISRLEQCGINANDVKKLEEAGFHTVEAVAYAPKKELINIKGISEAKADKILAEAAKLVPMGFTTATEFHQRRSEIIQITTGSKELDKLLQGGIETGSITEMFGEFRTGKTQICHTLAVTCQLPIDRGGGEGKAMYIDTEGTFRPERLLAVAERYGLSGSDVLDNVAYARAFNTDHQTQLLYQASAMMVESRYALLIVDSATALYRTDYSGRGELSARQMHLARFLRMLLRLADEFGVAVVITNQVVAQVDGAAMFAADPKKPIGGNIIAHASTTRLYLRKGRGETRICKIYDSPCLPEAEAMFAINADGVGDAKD
Method: Therefore, the 5-position of indole ring may provide a potential site for further modification. The inventors also noticed that there is a chiral center in the IBR compounds as marked by an asterisk in FIG. 1B. Initially, the inventors separated these two enantiomers by chiral HPLC (Regis Whelk-O1, Hexane:isopropanol=75:25) as shown in chromatogram of FIG. 1C and determined the absolute configuration by X-ray crystallography. […] Here, the inhibition of Rad51-BRC repeat binding was analyzed by SPR in a solution competition format.
Successful entities are then analyzed with Biacore's surface plasmon resonance (SPR) technique in a solution competition format to determine their median inhibitory concentration on Rad51. Briefly, the assays are performed on a Biacore 3000 (Biacore Inc.) using a Sensor chip NTA (Biacore Inc.) for capturing His-tagged Rad51 protein. The concentration of BRC protein is kept constant. Compounds are dissolved in DMSO at 20 mM and serially diluted in each BRC test sample. The assays are performed at 25° C. in running buffer (10 mM HEPES, 150 mM NaCl, 0.1% DMSO). Relative BRC-Rad51 binding percentage in the presence of inhibitors is calculated. The experiments are carried out in triplicate and averaged. The best-fit competitive binding curve is drawn and median inhibitory concentration of each candidate compound is obtained. The results of these assays are thought to help to establish a quantitative structure-activity relationship, which in turn guides further optimization of the positive hits.
To further determine the binding affinity of IBR2 to Rad51, the inventors then used a Biacore competitive binding assay.

[2] = tested on: Ba/F3 cells expressing WT, T315I or E255K BCR-ABL; assay: annexin V positive cells (apoptosis); format: cell-based, murine; settings: dose dependent
Method: (§1) In CML cells, the constitutively active BCR-ABL is responsible for maintaining high levels of Rad51 activity by direct activation through phosphorylation and transcriptional up-regulation mediated by STAT5. It is therefore contemplated that inhibition of Rad51 activity by IBR2 may have detrimental effects on CML. To test this possibility, murine hematopoietic Ba/F3 progenitor cells expressing different versions of BCR-ABL (e.g., wild-type, T315I, and E255K) mutants were treated with IBR2 at indicated concentrations for 48 hr, and growth inhibition was then determined by XTT (sodium 3′-[1-(phenylaminocarbonyl)-3,4-tetrazolium]-bis(4-methoxy-6-nitro) benzene sulfonate) assay. […] To further test whether the growth inhibition was resulted from cell death or cytostatic effect of IBR2 treatment, the inventors then determined the percentages of annexin V positive cells, which is indicative of cell death, after IBR2 treatment.

[3] = target: T2, Rad51 (Homo sapiens, UniProt Q06609); assay: SPR compound pretreatment, immobilized Rad51; format: binding
T2 sequence (Q06609 1-339): T1 sequence (Q06609 1-339)
Method: (§2) To determine whether it was Rad51 or BRC repeat that actually served as a direct target of these compounds, surface plasmon resonance (SPR) was employed to detect the inhibition of protein binding by compound pretreatment. In principle, one of the proteins was attached to the sensor chip, and IBR compounds were allowed to pass through the surface; then, the binding of the second protein was measured. If IBR compounds bind the immobilized protein, the binding of the second protein will be reduced; otherwise, the binding capacity of second protein will be mostly retained.

[4] = tested on: human blast crisis CML K562 cells; assay: percentage of apoptotic cells; format: cell-based
[5] = tested on: Ba/F3-p210 cells; assay: percentage of apoptotic cells; format: cell-based, murine; settings: 48 hours
From the text: Since Rad51 and BCR-ABL are in the same pathway essential for cell survival, it was contemplated that simultaneous treatment of Ba/F3-p210 cells with both inhibitors may synergistically enhance the cell death. […] Exemplary results are depicted in FIGS. 4A and 4B.

[6] = target: T3, BRC-RAD51 interaction (Homo sapiens, UniProt Q06609); assay: inducible reverse yeast two-hybrid screening; format: cell-based
T3 construct: expressed in transfected cells; host or cells: yeast strain harboring a TetOp-driven URA3 gene
T3 sequence (Q06609 1-339): T1 sequence (Q06609 1-339)
From the text: Briefly, two fusion proteins, the TetR-BRC fusion protein (TetR/NCB, constitutively expressed) and the Rad51-activation domain fusion protein (AD/Rad51, expressed under the GAL1 promoter), worked together as a transcriptional activator in a yeast strain harboring a TetOp-driven URA3 gene. The interaction between these two fusion proteins induced the expression of URA3 gene, and the toxic metabolite from 5-FOA in the medium caused cell death. If the small molecules tested inhibited TetR/BRC/AD/Rad51 interaction, URA3 expression was abolished and cells are allowed to grow.
The reverse yeast two-hybrid system is used to perform the second round screening of the modified small compounds. TetR/NCB fission protein which contains BRC1-4 repeats (TetR/NCB) are expressed constitutively; the expression of a RAD51-GAL4 Activation Domain fusion protein (AD/RAD51) is rendered galactose-inducible under GAL1 promoter. Yeast is grown on a galactose medium containing 5-FOA. The assay is performed on 96-well plates. Small molecule compounds are added into the medium at the concentration of 10 mM in the total volume of 100 ml. The compounds that can disrupt the BRC-RAD51 interaction are identified by the viability of the yeast.

[7] = tested on: BRC repeat; assay: SPR compound pretreatment, immobilized BRC repeat; format: binding
Method: as §2

[8] = target: T2, Rad51; assay: gel filtration profile of Rad51 (multimerization); format: biochemical; settings: data not shown
Method: To test this possibility, the inventors then compared the gel filtration profile of Rad51 incubated in the presence or absence of IBR2. […] The inventors then aligned the 3D structure of IBR2 with the BRC4 hairpin structure and the Rad51 oligomerization motif together. […] Therefore, one possibility of the action mechanism is that IBR compounds, by mimicking Phe1524 of BRCA2, may block the entrance of the hydrophobic binding pocket on Rad51 core domain, and inhibit BRCA2/Rad51 interaction as well as Rad51 multimerization.

[9] = tested on: Ba/F3-p210 cells; assay: median-effect and Combination Index analysis (Chou's method); format: cell-based, murine; settings: Mus musculus, read-out: median-effect dose (Dm)
[10] = tested on: Ba/F3 parental cells; assay: Western blot of protein expression; format: cell-based, murine; settings: IBR2-treated
Method: To examine the consequence of the BCR-ABL/Stat5/Rad51 regulatory pathway, the protein expression as well as their phosphorylation states in IBR2-treated cells were analyzed by Western blot.

[11] = tested on: BCR-ABL-expressing Ba/F3 cells; assay: XTT growth inhibition; format: cell-based, murine; settings: 48 hr
Method: as §1
To examine the consequence of the BCR-ABL/Stat5/Rad51 regulatory pathway, the protein expression as well as their phosphorylation states in IBR2-treated cells were analyzed by Western blot. […] On the contrary, there was little effect on Ba/F3 parental cells. The decrease of Rad51 expression in IBR2-treated cells is consistent with the inventors′ earlier observation that IBR2 induces Rad51 degradation mediated by proteasome in breast cancer cells. […]

[12] = tested on: Ba/F3 cells carrying BCR-ABL expression; assay: Western blot of BCR-ABL/Stat5/Rad51 pathway; format: cell-based, murine
Method: To examine the consequence of the BCR-ABL/Stat5/Rad51 regulatory pathway, the protein expression as well as their phosphorylation states in IBR2-treated cells were analyzed by Western blot. […] On the contrary, there was little effect on Ba/F3 parental cells. The decrease of Rad51 expression in IBR2-treated cells is consistent with the inventors′ earlier observation that IBR2 induces Rad51 degradation mediated by proteasome in breast cancer cells. Furthermore, the inventors performed the same set of experiments using compound B6, which has no inhibitory activity to Rad51 in vitro.

[13] = tested on: Ba/F3-T315I cells; assay: Western blot of protein expression; format: cell-based, murine; settings: 20 μM IBR2 alone, within 12-24 hours
From the text: Direct targeting to Rad51 may provide a potential strategy to overcome this type of resistance. […] Next, the inventors examined the effects of IBR2 treatment on the protein expression levels in these cells by western blot.

[14] = tested on: Ba/F3-T315I cells; assay: induction of cell death; format: cell-based, murine; settings: 20 μM IBR2 alone
[15] = tested on: Ba/F3-T315I cells; assay: survival of NOD/SCID mice injected with Ba/F3-T315I cells; format: in vivo; settings: 100 mg/kg, 30 days, vs vehicle, p<0.01
[16] = tested on: Ba/F3 parental cells; assay: XTT growth inhibition; format: cell-based, murine; settings: 48 hr
[17] = tested on: Rad51 foci formation in MCF-7 breast cancer cells; assay: IR-induced Rad51 foci formation assay; format: cell-based
Method: These compounds were then tested for their effects on the IR-induced Rad51 foci formation in MCF-7 breast cancer cells. […] These compounds were then tested for their effects on the IR-induced Rad51 foci formation in MCF-7 breast cancer cells as also described in WO 2006/044933.

[18] = tested on: Ba/F3 cells expressing T315I BCR-ABL; assay: XTT growth inhibition; format: cell-based, murine; settings: Mus musculus, BaF3, 48 hr
Method: as §1

[19] = tested on: Ba/F3-T315I; assay: cell growth (viable cell count / XTT); format: cell-based; settings: 0 to 20 μM, up to three days, dose-dependent
Method: (§3) The inventors also examined the effect of IBR2 on growth of Ba/F3 expressing wild type Bcr-Abl-P210 and Bcr-Abl mutant isoform T315I. […] FIG. 9 illustrates the effect of IBR2 on parental Ba/F3 cells and Ba/F3 cells expressing WT Bcr-Abl or Bcr-Abl mutant isoform T315I cells. […] After 72 hours of incubation, proliferation was measured by XTT-based method. Absorbance was measured at 490 nm in a microplate reader. Bars are SD, n=2.

[20] = tested on: Ba/F3-P210; assay: cell growth (viable cell count / XTT); format: cell-based; settings: 0 to 20 μM, up to three days, dose-dependent
Method: as §3

[21] = tested on: K562 cells; assay: Western blot of protein expression; format: cell-based, human; settings: imatinib, absence of IBR2
From the text: The inventors then examined the protein expression levels of Rad51, BCR-ABL and Stat5 by western blot analysis.

[22] = tested on: Ba/F3-p210 cells; assay: Western blot of protein expression; format: cell-based, murine; settings: 0.1-0.6 μM imatinib, absence of IBR2
From the text: The inventors then examined the effects of co-treatment on Rad51, BCR-ABL, and Stat5 protein expression levels as described above.

[23] = SPR, solution competition format, read-out: median inhibition concentration

Compound: O=S(=O)(Cc1ccccc1)N1C=Cc2ccccc2C1c1c[nH]c2ccccc12 (racemic) [IBR2]
- pIC50 [1, 23]: ~6.94

Compound: O=S(=O)(Cc1ccccc1)N1C=Cc2ccccc2C1c1c[nH]c2ccccc12 (centres unmarked) [IBR2]
- apoptosis (annexin V positive cells) [2]: induced apoptosis
- binding of BRC repeat to immobilized Rad51 after compound pretreatment [3]: lost the ability to bind BRC repeat
- apoptotic percentage ([4]; IBR2 15 μM alone): ~10%
- apoptotic cells ([5]; IBR2 5 μM): about 1.7%
- apoptotic cells ([5]; IBR2 10 μM): ~4.1%
- apoptotic cells ([5]; IBR2 15 μM alone): < 10% and ~12.6%
- apoptotic cells ([5]; IBR2 20 μM): ~57.1%
- yeast two-hybrid screening [6]: positive
- binding of immobilized BRC repeat to Rad51 after compound pretreatment [7]: did not affect
- Rad51 elution profile (multimerization) [8]: major peak consistent with the molecular weight of a monomer
- pEC50 [9]: 4.86
- protein expression and phosphorylation [10]: little effect
- proliferation [11]: inhibited the proliferation
- Rad51, BCR-ABL and phosphorylated Stat5 (p-Stat5) levels [12]: dose-dependent decreases
- c-Abl, p-c-Abl and total Stat5 protein [12]: unchanged
- protein expression levels of Rad51, BCR-ABL, p-BCR-ABL and p-Stat5 [13]: dramatically reduced
- cell death [14]: over 80%
- pIC50 ([1]; Biacore competitive binding assay, read-out: IC50): 6.96
- survival of mice [15]: significantly prolonged survivals
- proliferation [16]: much less
- IR-induced Rad51 foci formation [17]: dramatically reduced Rad51 foci formation
- IR-induced Rad51 foci formation ([17]; listed as NS7798): positive
- pIC50 [18]: 4.92
- cell growth [19]: significantly inhibited the growth
- cell growth [20]: significantly inhibited the growth

Compound: O=S(=O)(Cc1ccccc1)N1C=Cc2ccccc2[C@@H]1c1c[nH]c2ccccc12 [R-IBR2]
- pIC50 [1, 23]: ~9.00

Compound: Cc1ccc(NC(=O)c2ccc(CN3CCN(C)CC3)cc2)cc1Nc1nccc(-c2cccnc2)n1 [imatinib]
- apoptotic percentage ([4]; imatinib 0.1 μM): about 9.7%
- apoptotic percentage ([4]; imatinib 0.2 μM): ~11.8%
- apoptotic percentage ([4]; imatinib 0.6 μM): ~28.1%
- Rad51, BCR-ABL, p-BCR-ABL, p-Stat5 levels [21]: decreased in a dose dependent manner
- Stat5 protein level [21]: did not affect
- apoptotic cells ([5]; imatinib 0.1 μM): about 6.8%
- apoptotic cells ([5]; imatinib 0.2 μM): ~7.6% and ~10%
- apoptotic cells ([5]; imatinib 0.4 μM): ~23.1%
- apoptotic cells ([5]; imatinib 0.6 μM): ~39.3%
- Rad51, BCR-ABL, p-BCR-ABL and p-Stat5 levels [22]: modestly decreased
- Stat5 protein level [22]: did not influence
